The values below are quoted from earlier work in patent publication US20250231185A1, “Coronavirus T Cell Epitopes, Megapools and Uses Thereof” (La Jolla Institute for Immunology, priority 2021, published 2025).

In the first data set the test system is CD8+ T cells. The note with it: CD8R (D) megapool epitopes; dominant = recognized by 3 or more donors/different studies; cited from earlier work.
As to 1722 (RLYYDSMSY) [compound 1722], the Dominant entry is reported as “Yes (more dominant epitopes are defined by being recognized by 3 or more donors/different studies)”.

On to 1809 (YYQLYSTQL) [compound 1809], for which the Dominant entry is on record as “Yes (more dominant epitopes are defined by being recognized by 3 or more donors/different studies)”.

For 1733 (VVYRGTTTY) [compound 1733], the Dominant entry is “Yes (more dominant epitopes are defined by being recognized by 3 or more donors/different studies)”.

1703 (GMSRIGMEV) [compound 1703]: the Dominant result is “Yes (more dominant epitopes are defined by being recognized by 3 or more donors/different studies)”.

On to 1739 (IVDTVSALV) [compound 1739], for which the Dominant result is “Yes (more dominant epitopes are defined by being recognized by 3 or more donors/different studies)”.

As for 1678 (ATSRTLSYY) [compound 1678], the Dominant result was “Yes (more dominant epitopes are defined by being recognized by 3 or more donors/different studies)”.

1807 (LLYDANYFL) [compound 1807]: the Dominant entry is “Yes (more dominant epitopes are defined by being recognized by 3 or more donors/different studies)”.

Consider 1672 (TLACFVLAAV) [compound 1672], for which the Dominant result is “Yes (more dominant epitopes are defined by being recognized by 3 or more donors/different studies)”.

1676 (SELVIGAVIL) [compound 1676]: the Dominant result is on record as “Yes (more dominant epitopes are defined by being recognized by 3 or more donors/different studies)”.

For the substance 1718 (FVDGVPFVV) [compound 1718], the Dominant result was “Yes (more dominant epitopes are defined by being recognized by 3 or more donors/different studies)”.

In the case of 1776 (FLLNKEMYL) [compound 1776], the Dominant result is reported as “Yes (more dominant epitopes are defined by being recognized by 3 or more donors/different studies)”.

On to 1689 (SPRWYFYYL) [compound 1689], for which the Dominant entry is recorded as “Yes (more dominant epitopes are defined by being recognized by 3 or more donors/different studies)”.

Turning to 1706 (ILLNKHIDA) [compound 1706], the Dominant entry is “Yes (more dominant epitopes are defined by being recognized by 3 or more donors/different studies)”.

As for 1749 (KQFDTYNLW) [compound 1749], the Dominant entry is reported as “Yes (more dominant epitopes are defined by being recognized by 3 or more donors/different studies)”.

1697 (QQQQGQTVTK) [compound 1697]: the Dominant entry is “Yes (more dominant epitopes are defined by being recognized by 3 or more donors/different studies)”.

Regarding 1759 (KLVNKFLAL) [compound 1759], the Dominant result is recorded as “Yes (more dominant epitopes are defined by being recognized by 3 or more donors/different studies)”.

On to 1779 (VRIQPGQTF) [compound 1779], for which the Dominant result is “Yes (more dominant epitopes are defined by being recognized by 3 or more donors/different studies)”.

The data set is the same for the next values; noted with them: CD8RE megapool peptides (non-spike SARS-CoV-2 antigens); dominant epitope Yes/No; cited from earlier work.
Take 3032 (CTDDNALAYY) [compound 3032]: the Dominant result is reported as “Yes (more dominant epitopes are defined by being recognized by 3 or more donors/different studies)”.

Consider 2913 (ATSRTLSYY) [compound 2913], for which the Dominant result is reported as “Yes (more dominant epitopes are defined by being recognized by 3 or more donors/different studies)”.

Turning to 2936 (AQFAPSASAF) [compound 2936], the Dominant entry is given as “Yes (more dominant epitopes are defined by being recognized by 3 or more donors/different studies)”.

On to 2921 (RIRGGDGKMK) [compound 2921], for which the Dominant result is reported as “Yes (more dominant epitopes are defined by being recognized by 3 or more donors/different studies)”.

For 3004 (ILFTRFFYV) [compound 3004], the Dominant entry was “Yes (more dominant epitopes are defined by being recognized by 3 or more donors/different studies)”.

2931 (LLLDRLNQL) [compound 2931]: the Dominant entry is “Yes (more dominant epitopes are defined by being recognized by 3 or more donors/different studies)”.

For 3048 (KLFIRQEEV) [compound 3048], the Dominant result is given as “Yes (more dominant epitopes are defined by being recognized by 3 or more donors/different studies)”.

With 3019 (SAFAMMFVK) [compound 3019], the Dominant entry is “Yes (more dominant epitopes are defined by being recognized by 3 or more donors/different studies)”.

With 2955 (RQLLFVVEV) [compound 2955], the Dominant result is recorded as “Yes (more dominant epitopes are defined by being recognized by 3 or more donors/different studies)”.

Turning to 3050 (IMLIIFWFSL) [compound 3050], the Dominant entry was “Yes (more dominant epitopes are defined by being recognized by 3 or more donors/different studies)”.

Consider 2932 (QQQQGQTVTK) [compound 2932], for which the Dominant result is given as “Yes (more dominant epitopes are defined by being recognized by 3 or more donors/different studies)”.

Take 3038 (IVGVALLAVF) [compound 3038]: the Dominant result is “Yes (more dominant epitopes are defined by being recognized by 3 or more donors/different studies)”.

For the substance 2998 (QEILGTVSW) [compound 2998], the Dominant result is reported as “Yes (more dominant epitopes are defined by being recognized by 3 or more donors/different studies)”.

Regarding 2941 (ILLNKHIDA) [compound 2941], the Dominant entry was “Yes (more dominant epitopes are defined by being recognized by 3 or more donors/different studies)”.

Still in this data set, the particulars now being: SARS-CoV-2-derived CD8 epitopes; dominant = recognized by 3 or more donors/different studies; cited from earlier work.
On to 579 (KLVNKFLAL) [compound 579], for which the Dominant entry is recorded as “Yes (more dominant epitopes are defined by being recognized by 3 or more donors/different studies)”.

Take 632 (QEILGTVSW) [compound 632]: the Dominant result is reported as “Yes (more dominant epitopes are defined by being recognized by 3 or more donors/different studies)”.

Turning to 501 (LSPRWYFYYL) [compound 501], the Dominant result is recorded as “Yes (more dominant epitopes are defined by being recognized by 3 or more donors/different studies)”.

Take 541 (MEVTPSGTW) [compound 541]: the Dominant result was “Yes (more dominant epitopes are defined by being recognized by 3 or more donors/different studies)”.

In the case of 523 (KPRQKRTAT) [compound 523], the Dominant result is “Yes (more dominant epitopes are defined by being recognized by 3 or more donors/different studies)”.

As to 557 (FSKQLQQSM) [compound 557], the Dominant entry is given as “Yes (more dominant epitopes are defined by being recognized by 3 or more donors/different studies)”.

For the substance 504 (GTGPEAGLPY) [compound 504], the Dominant entry was “Yes (more dominant epitopes are defined by being recognized by 3 or more donors/different studies)”.

Consider 661 (TTDPSFLGRY) [compound 661], for which the Dominant entry is “Yes (more dominant epitopes are defined by being recognized by 3 or more donors/different studies)”.

The same data set, now with this note: SARS-CoV-2 Ag S; T cell type recognizing the epitope; cited from earlier work.
As to 1336 (IHADQLTPTW) [compound 1336], the Restriction result was “CD8”.

Regarding 1301 (VGGNYNYLY) [compound 1301], the Restriction entry is “CD8”.

Consider 1460 (QYIKWPWYIW) [compound 1460], for which the Restriction result is listed as “CD8”.

1382 (ADAGFIKQY) [compound 1382]: the Restriction entry is recorded as “CD8”.

As for 1311 (FERDISTEI) [compound 1311], the Restriction entry is listed as “CD8”.

As to 1467 (EPVLKGVKL) [compound 1467], the Restriction entry is given as “CD8”.

For the substance 1356 (AYSNNSIAI) [compound 1356], the Restriction result was “CD8”.

1322 (FELLHAPATV) [compound 1322]: the Restriction result was “CD8”.

The data set is the same for the next values; noted with them: T cell subset (CD4 or CD8) recognizing the SARS-CoV-2-derived epitope; cited from earlier work.
621 (ESKPSVEQR) [compound 621]: the Restriction result was “CD8”.

For 656 (KPHNSHEGKTF) [compound 656], the Restriction result is reported as “CD8”.

Consider 667 (SALNHTKKW) [compound 667], for which the Restriction result is recorded as “CD8”.

For 615 (AVFDKNLYDK) [compound 615], the Restriction entry is listed as “CD8”.

For the substance 500 (MKDLSPRWY) [compound 500], the Restriction result was “CD8”.

Turning to 570 (AIILASFSAST) [compound 570], the Restriction result is recorded as “CD8”.

In the case of 569 (EEIAIILASF) [compound 569], the Restriction result is “CD8”.

Turning to 607 (YLKLTDNVYIK) [compound 607], the Restriction result was “CD8”.

Consider 658 (FEYYHTTDPSF) [compound 658], for which the Restriction entry was “CD8”.

With 668 (WKYPQVNGL) [compound 668], the Restriction entry is reported as “CD8”.

Turning to 679 (FTCASEYTGNY) [compound 679], the Restriction result is on record as “CD8”.

Take 579 (KLVNKFLAL) [compound 579]: the Restriction result is given as “CD8”.

For the substance 632 (QEILGTVSW) [compound 632], the Restriction entry is “CD8”.

For 587 (FELDERIDKV) [compound 587], the Restriction result was “CD8”.

On to 501 (LSPRWYFYYL) [compound 501], for which the Restriction entry is listed as “CD8”.

Turning to 526 (RRGPEQTQGNF) [compound 526], the Restriction entry was “CD8”.

With 541 (MEVTPSGTW) [compound 541], the Restriction entry is on record as “CD8”.

Take 550 (YKTFPPTEPK) [compound 550]: the Restriction result is reported as “CD8”.

With 523 (KPRQKRTAT) [compound 523], the Restriction entry is reported as “CD8”.

Consider 557 (FSKQLQQSM) [compound 557], for which the Restriction result was “CD8”.

Consider 504 (GTGPEAGLPY) [compound 504], for which the Restriction entry is listed as “CD8”.

As for 661 (TTDPSFLGRY) [compound 661], the Restriction result is on record as “CD8”.

Regarding 698 (DVVAIDYKHY) [compound 698], the Restriction result is listed as “CD8”.

Staying with this data set, now noted: T cell type (CD4 or CD8) recognizing the SARS-CoV-2 epitope; cited from earlier work.
For 968 (KSAGFPFNK) [compound 968], the Restriction entry is given as “CD8”.

Take 1007 (LPYPDPSRIL) [compound 1007]: the Restriction entry is “CD8”.

On to 963 (YRYNLPTM) [compound 963], for which the Restriction result is given as “CD8”.

Consider 1086 (VAMPNLYKM) [compound 1086], for which the Restriction result is “CD8”.

Regarding 942 (KPYIKWDLL) [compound 942], the Restriction result is “CD8”.

946 (STVFPPTSF) [compound 946]: the Restriction result is reported as “CD8”.

Take 1011 (YADVFHLYL) [compound 1011]: the Restriction result is on record as “CD8”.

As to 999 (LYYQNNVFM) [compound 999], the Restriction entry was “CD8”.

Take 993 (FVNEFYAYLR) [compound 993]: the Restriction result was “CD8”.

With 953 (VVSTGYHFR) [compound 953], the Restriction entry is on record as “CD8”.
